Data published in publication PMC12390684 (Viruses, 2025).
“And” between values parts separate entries of the source, which are not always exact repeats. Identical values can stand only once. Like-named read-outs stand apart in the source and are kept apart here.

What was measured:
[1] = Cytotoxicity (CellTiter 96 AQueous); type: cell-based; conditions: human
HIV-1Laï = test: microbe, parasite or virus in culture; type: cell-based; conditions: for EC50: Human immunodeficiency virus 1, MAGI; for SI (CC50/EC50): selectivity index
[2] = molecular target: IN-GCN2 interaction (6xHis-IN / GST-GCN2) (UniProt P04585+Q9P2K8); test: biochemical; type: binding, HIV-1 IN; human GCN2; conditions: for IC50: IC50, inhibition of IN-GCN2 interaction, SAR study, fresh dilutions from powder, at least three independent experiments; for IN-GCN2 interaction (%): screen, single dose 100 µM, single replicate, residual AlphaLISA signal normalized to DMSO control
HIV-1 IN = HIV-1 IN (Human immunodeficiency virus type 1 group M subtype B, UniProt P04585); test: Strand transfer (ST) gel-based assay; type: biochemical
[3] = 24 h, 24 h infection, read-out: EC50
[4] = P4 MAGI CCR5+ cells, 24 h, read-out: CC50

Chain of IN-GCN2 interaction (6xHis-IN / GST-GCN2) (Q9P2K8 192-1024, other chains not shown): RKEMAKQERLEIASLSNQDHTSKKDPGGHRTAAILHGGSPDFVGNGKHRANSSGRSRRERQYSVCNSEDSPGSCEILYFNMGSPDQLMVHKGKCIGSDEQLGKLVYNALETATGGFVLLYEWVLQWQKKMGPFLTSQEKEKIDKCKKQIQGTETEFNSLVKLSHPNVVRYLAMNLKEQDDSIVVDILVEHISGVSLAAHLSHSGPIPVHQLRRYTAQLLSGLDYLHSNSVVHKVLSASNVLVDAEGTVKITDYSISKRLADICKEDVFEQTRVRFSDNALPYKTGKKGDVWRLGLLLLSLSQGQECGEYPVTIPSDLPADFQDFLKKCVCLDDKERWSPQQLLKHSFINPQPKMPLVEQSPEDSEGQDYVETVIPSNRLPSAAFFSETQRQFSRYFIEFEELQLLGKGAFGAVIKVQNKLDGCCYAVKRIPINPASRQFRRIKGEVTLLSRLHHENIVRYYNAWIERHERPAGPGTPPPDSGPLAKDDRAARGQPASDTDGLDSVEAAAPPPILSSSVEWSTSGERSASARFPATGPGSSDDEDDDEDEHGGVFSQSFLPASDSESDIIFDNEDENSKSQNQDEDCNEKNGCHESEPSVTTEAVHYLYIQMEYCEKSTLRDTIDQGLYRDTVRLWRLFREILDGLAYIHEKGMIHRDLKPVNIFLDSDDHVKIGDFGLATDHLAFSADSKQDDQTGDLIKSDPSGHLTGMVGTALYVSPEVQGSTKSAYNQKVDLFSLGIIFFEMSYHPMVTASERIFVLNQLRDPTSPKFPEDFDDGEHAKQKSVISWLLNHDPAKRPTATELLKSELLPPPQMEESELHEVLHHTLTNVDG

SMILES | CC50 ([1]; 24 h, read-out: CC50) | IC50 [2] | EC50 (HIV-1Laï; [3]) | CC50 at 24 h [1, 4] | further results
CCC1(O)CC(OC2CC(N(C)C)C(OC3CC4OC5CC(=O)C(C)OC5OC4C(C)O3)C(C)O2)c2c(cc3c(c2O)C(=O)c2c(O)ccc(O)c2C3=O)C1C(=O)OC (centres unmarked) [Compound 1a, cinerubin B] | > 5 µM | – | – | – | EC50 (HIV-1Laï; 24 h infection, read-out: EC50): 0.494 µM
CCC1(O)CC(OC2CC(N)C(O)C(C)O2)c2c(O)c3c(c(O)c2C1C(=O)OC)C(=O)c1cccc(O)c1C3=O (centres unmarked) [Compound 1b] | > 5 µM | 0.917 µM | – | – | –
CCC1(O)CC(OC2CC(N(C)C)C(O)C(C)O2)c2c(cc3c(c2O)C(=O)c2c(O)ccc(O)c2C3=O)C1C(=O)OC (centres unmarked) [Compound 1c] | 0.589 µM | 1.4 µM | – | – | –
CC(=O)[C@]1(O)Cc2c(O)c3c(c(O)c2[C@@H](O[C@H]2C[C@H](N)[C@H](O)[C@H](C)O2)C1)C(=O)c1c(O)cccc1C3=O [Compound 1d] | – | – | – | – | CC50 [1]: 0.04 µM
CCC1(O)CC(OC2CC(N(C)C)C(O)C(C)O2)c2c(O)c3c(c(O)c2C1OC1CC(N(C)C)C(O)C(C)O1)C(=O)c1cccc(O)c1C3=O (centres unmarked) [Compound 1e] | 0.724 µM | – | – | – | IN-GCN2 interaction (%) [2]: 17.07%
CCC1(O)CC(OC2CC(N(C)C)C(O)C(C)O2)c2c(cc3c(c2O)C(=O)c2c(O)cccc2C3=O)C1C(=O)OC (centres unmarked) [Compound 1f] | 2.35 µM | 3.23 µM | – | – | IN-GCN2 interaction (%) [2]: 43.80%; EC50 (HIV-1Laï; 24 h infection, read-out: EC50): 1.39 µM
CCCCCCCC(=O)OCC(=O)C1(O)Cc2c(O)c3c(c(O)c2C(OC2CC(N)C(O)C(C)O2)C1)C(=O)c1c(OC)cccc1C3=O (centres unmarked) [Compound 1g, adriamycin octanoate] | 1.67 µM | 3.95 µM and 4 µM | 0.211 µM | – | SI (CC50/EC50) (HIV-1Laï): 7.9; SI (CC50/EC50) (HIV-1Laï; listed as NSC149584): > 10.1
COc1cccc2c1C(=O)c1c(O)c3c(c(O)c1C2=O)CC(O)(C(C)=O)CC3OC1CC(N)C(OC2CC(O)C(O)C(C)O2)C(C)O1 (centres unmarked) [Compound 1h] | – | 6.5 µM | 1.66 µM | – | CC50 at 24 h [1]: > 5 µM; SI (CC50/EC50) (HIV-1Laï): >3
CCOC(OCC)C(=O)OCC(=O)C1(O)Cc2c(O)c3c(c(O)c2C(OC2CC(N)C(O)C(C)O2)C1)C(=O)c1c(OC)cccc1C3=O (centres unmarked) [Compound 1i] | – | 8.05 µM | – | – | CC50 at 24 h [1]: > 5 µM; EC50 (HIV-1Laï; 24 h): > 5 µM
COC(=O)[C@@H]1c2cc3c(c(O)c2[C@@H](O[C@@H]2O[C@@H](C)[C@H](OC)[C@@](C)(OC)[C@H]2OC)C[C@]1(C)O)C(=O)c1c(O)cc2c(c1C3=O)O[C@@H]1O[C@@]2(C)[C@H](O)[C@@H](N(C)C)[C@@H]1O [Compound 1j] | – | 8.88 µM | – | – | CC50 at 24 h [1]: 0.311 µM
CC[C@@]1(O)C[C@H](O[C@H]2C[C@H](N(C)C)[C@H](O[C@H]3C[C@H](O)[C@H](O[C@H]4CCC(=O)[C@H](C)O4)[C@H](C)O3)[C@H](C)O2)c2c(cc3c(c2O)C(=O)c2c(O)cccc2C3=O)[C@H]1C(=O)OC [Compound 1k] | 0.114 µM | – | – | – | IN-GCN2 interaction (%) [2]: 28.46%
CCCCCCCCCCCCCCCCCC(=O)OCC(=O)OCC(=O)C1(O)Cc2c(O)c3c(c(O)c2C(OC2CC(N)C(O)C(C)O2)C1)C(=O)c1c(OC)cccc1C3=O (centres unmarked) [Compound 1m] | – | 20.6 µM | – | > 5 µM | –
CCN(CC)C1CC(OC2CC(O)(C(=O)CO)Cc3c(O)c4c(c(O)c32)C(=O)c2c(OC)cccc2C4=O)OC(C)C1O (centres unmarked) [Compound 1n] | 0.512 µM | 29.4 µM | – | – | –
COc1cccc2c1C(=O)c1c(O)c3c(c(O)c1C2=O)CC(O)(C(C)=O)CC3OC1CC(N(C)C)C(O)C(C)O1 (centres unmarked) [Compound 1o] | – | 43.7 µM | – | – | CC50 at 24 h [1]: 0.256 µM
COc1cccc2c1C(=O)c1c(O)c3c(c(O)c1C2=O)CC(O)(C(C)=O)CC3OC1CC([N+](C)(C)C)C(O)C(C)O1 (centres unmarked) [Compound 1q] | > 5 µM | 75 µM | > 5 µM | – | –
COc1ccc2ccccc2c1/C=C/C(=O)c1ccc(OCc2ccccc2)cc1O [Compound 2a] | – | 2.6 µM | – | > 5 µM | effect on HIV replication, in words (HIV-1Laï): pro-viral
O=C1CC(c2ccc(O)c(-c3c(O)cc4c(c3O)C(=O)CC(c3ccc(O)cc3)O4)c2)Oc2cc(O)cc(O)c21 (centres unmarked) [Compound 2c] | – | > 100 µM | – | > 5 µM | –
O=C1c2ccccc2C(=O)c2c(NCCNCCO)ccc(O)c21 [Compound 2d] | – | 1.2 µM | – | > 5 µM | fold loss of potency at inhibiting ST compared to NSC279836 (HIV-1 IN): around 20 fold; ST activity compared to the DMSO control (HIV-1 IN; increase at lower concentrations): up to 170%; viral replication, maximum, relative to DMSO control (HIV-1Laï; dose-dependent increase (pro-viral effect)): up to 290%
O=C1c2c(O)ccc(O)c2C(=O)c2c(NCCO)ccc(NCCO)c21 [Compound 2e] | – | 4.4 µM | > 5 µM | – | CC50 at 24 h [1]: > 5 µM
NC(CS)C(=O)NCCNc1ccc(NCCNC(=O)C(N)CS)c2c1C(=O)c1c(O)ccc(O)c1C2=O (centres unmarked) [Compound 2f] | – | 6.4 µM | – | 3.48 µM | –
O=C1c2c(O)ccc(O)c2C(=O)c2c(NCCOCCO)ccc(NCCOCCO)c21 [Compound 2g] | – | 6.6 µM | > 5 µM | – | CC50 at 24 h [1]: > 5 µM
CC(=O)Nc1ccc(Nc2ccc(NCCO)c3c2C(=O)c2c(O)ccc(O)c2C3=O)cc1 [Compound 2h] | – | 10.6 µM | > 5 µM | > 5 µM | –
O=C1c2c(O)ccc(O)c2C(=O)c2c(NCCCCO)ccc(NCCCCO)c21 [Compound 2i] | – | 11.2 µM | > 5 µM | > 5 µM | –
